EC50 data for twelve molecules are collected here from US6660752B2, “2,6-Substituted chroman derivatives useful as beta-3 adrenoreceptor agonists” (Bayer Pharmaceuticals Corporation, priority 2001, dated 2003).

Molecules are shown by their SMILES.

In one assay the target is T1, human beta-3-adrenergic receptor (Homo sapiens, UniProt P13945).
T1 construct: stably express full-length human beta-3-adrenergic receptor; expressed in transfected cells; host or cells: Chinese hamster ovary (CHO) cells
T1 sequence (P13945 whole entry): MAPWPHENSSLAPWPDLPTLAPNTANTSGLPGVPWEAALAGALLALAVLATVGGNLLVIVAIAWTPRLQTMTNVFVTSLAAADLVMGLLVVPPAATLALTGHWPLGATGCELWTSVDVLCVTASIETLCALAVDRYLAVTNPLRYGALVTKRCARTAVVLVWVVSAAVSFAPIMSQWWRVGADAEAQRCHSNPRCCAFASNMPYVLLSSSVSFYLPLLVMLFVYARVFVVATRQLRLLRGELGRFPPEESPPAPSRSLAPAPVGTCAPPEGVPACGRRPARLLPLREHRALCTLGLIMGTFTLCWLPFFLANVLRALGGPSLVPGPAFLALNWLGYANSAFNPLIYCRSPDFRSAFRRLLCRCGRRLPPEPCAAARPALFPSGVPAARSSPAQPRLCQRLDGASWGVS
Description: cAMP production (beta-3 agonist activity) in CHO cells stably expressing human beta-3-adrenergic receptor, cAMP SPA. Type of assay: cell-based. The conditions noted are these: CHO cells expressing full-length human beta-3-adrenergic receptor, 30 min incubation, 10 μM to 3 nM, read-out: Beta-3 Agonistic Activity: Compounds with EC50 values >1 μM. The gist of the method:
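CHO cells stably expressing full-length receptor treated 30 min at 37° C with compounds (10 μM to 3 nM, 3-fold dilutions) in KRP buffer pH 7.4 with […] IBMX and 1% DMSO. Lysed cells assayed for cAMP by SPA; EC50 derived from cAMP concentration-response curves.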
On the technique in general: Changes in cAMP serve as a functional read-out for many G protein-coupled receptors.
Regarding `Nc1ccc([C@@H](O)CNC[C@H]2CCc3cc(C(=O)N4CCC[C@H]4C(=O)O)ccc3O2)cn1` [Example 363], the concentration giving a half-maximal response (EC50) is above 1000 nM.
`Nc1ccc([C@@H](O)CNC[C@H]2CCc3cc(C(=O)N4CCCC[C@H]4C(=O)O)ccc3O2)cn1` [Example 364]: the EC50 was above 1000 nM.
The same measure, in the same setting: to `Nc1ccc([C@@H](O)CNC[C@H]2CCc3cc(C(=O)N(CC(=O)O)Cc4ccccn4)ccc3O2)cn1` [Example 365] belongs above 1000 nM.
Still for that read-out and setting: then `Nc1ccc([C@@H](O)CNC[C@H]2CCc3cc(C(=O)N4CCC[C@@H]4C(=O)O)ccc3O2)cn1` [Example 367], with above 1000 nM.

Still in this assay, the particulars now being: CHO cells expressing full-length human beta-3-adrenergic receptor, 30 min incubation, 10 μM to 3 nM, read-out: Beta-3 Agonistic Activity: Compounds with EC50 values ≦1 μM.
On to `Nc1ccc([C@@H](O)CNC[C@H]2CCc3cc(C(=O)NCC(=O)O)ccc3O2)cn1` [Example 362, N-{[(2R)-2-({[(2R)-2-(6-amino-3-pyridinyl)-2-hydroxyethyl]amino}methyl)-3,4-dihydro-2H-chromen-6-yl]carbonyl}glycine], for which the EC50 is at most 1000 nM.
The same measure, in the same setting: then `Nc1ccc([C@@H](O)CNC[C@H]2CCc3cc(C(=O)NC4(C(=O)O)CC4)ccc3O2)cn1` [Example 366, 1-({[(2R)-2-({[(2R)-2-(6-amino-3-pyridinyl)-2-hydroxyethyl]amino}methyl)-3,4-dihydro-2H-chromen-6-yl]carbonyl}amino)cyclopropanecarboxylic acid], with at most 1000 nM.
For `COC(=O)c1ccc(-c2ccc3c(c2)CC[C@H](CNC[C@H](O)c2ccc(N)nc2)O3)cc1` [Example 381], the concentration for a half-maximal effect (EC50) is at most 1000 nM.
As for `COC(=O)c1cccc(-c2ccc3c(c2)CC[C@H](CNC[C@H](O)c2ccc(N)nc2)O3)c1` [Example 382], the 50% effective concentration (EC50) is at most 1000 nM.
Same read-out and setting: to `Nc1ccc([C@@H](O)CNC[C@H]2CCc3cc(-c4cccc(C(=O)N5CCCC5)c4)ccc3O2)cn1` [Example 383] belongs at most 1000 nM.
On the same count and under the same terms, to `Nc1ccc([C@@H](O)CNC[C@H]2CCc3cc(-c4ccc(-c5nnn[nH]5)cc4)ccc3O2)cn1` [Example 384, (1R)-1-(6-amino-3-pyridinyl)-2-[({(2R)-6-[4-(1H-tetraazol-5-yl)phenyl]-3,4-dihydro-2H-chromen-2-yl}methyl)amino]ethanol] belongs at most 1000 nM; to `Nc1ccc([C@@H](O)CNC[C@H]2CCc3cc(-c4ccc(C(=O)O)cc4)ccc3O2)cn1` [Example 385, 4-[(2R)-2-({[(2R)-2-(6-amino-3-pyridinyl)-2-hydroxyethyl]amino}methyl)-3,4-dihydro-2H-chromen-6-yl]benzoic Acid], at most 1000 nM; to `Nc1ccc([C@@H](O)CNC[C@H]2CCc3cc(-c4cccc(C(=O)O)c4)ccc3O2)cn1` [Example 386, 3-[(2R)-2-({[(2R)-2-(6-amino-3-pyridinyl)-2-hydroxyethyl]amino}methyl)-3,4-dihydro-2H-chromen-6-yl]benzoic Acid], at most 1000 nM.

As a reminder, the EC50 is the concentration giving half of the maximal effect.
